Source: patent US20200397796A1, “METHODS OF TREATMENT OF CANCER COMPRISING CHK1 INHIBITORS” (SIERRA ONCOLOGY, INC., priority 2018, published 2020)

Assays:
KPC-1 pancreatic cancer = experiment: In vivo efficacy, KPC-1 model; parameters: species or system mouse; conditions: in combination with standard-dose gemcitabine; data not shown
Experimental: (§1) A program of in vivo efficacy studies was performed to assess the activity of SRA737 in combination with genotoxic chemotherapy and targeted agents, and as monotherapy.
(§2) One of these models also carried a MYCN amplification. A fourth HGSOC PDX model with partial resistance to PARPi was also sensitive to high dose SRA737 monotherapy.

[1] = tested on: Eμ-Myc model of B-cell lymphoma; experiment: In vivo efficacy, Eμ-Myc model; parameters: species or system mouse; conditions: data not shown
Experimental: as §1, §2

[2] = Caco-2 permeability assay; format: in vitro ADME; conditions: human
Experimental: The membrane permeability of SRA737 was assessed in the parallel artificial membrane permeability assay (PAMPA) and Caco-2 assays. Permeability in the PAMPA assay was classified as low.

minipig hepatocytes = experiment: Stability in cryopreserved hepatocytes, minipig; format: in vitro ADME; conditions: 10 μM, after 4 hours of incubation
Experimental: The formation of SRA737-related metabolites was determined in cryopreserved hepatocytes from human, mouse, rat, dog, minipig and monkey samples after incubation with SRA737 at a nominal concentration of 10 μM for up to 4 hours. […] In the human hepatocyte preparation, approximately 67% of the parent remained after 4 hours of incubation compared to 75% and 7% in the rat and minipig preparations, respectively. Eight human SRA737 metabolites were observed. All SRA737 metabolites formed by human hepatocytes were also formed by monkey hepatocytes. Six metabolites were present at equal or greater abundance in the monkey.

[3] = Three-cycle combination toxicity study with gemcitabine and cisplatin, mouse; format: in vivo; conditions: mice; SRA737 with IV gemcitabine and cisplatin, intermittent schedule over 18 days
Source text: Clinical combination of SRA737 and gemcitabine in some cases therefore elicited exacerbated hematological and GI toxicities.

[4] = Phase 1 clinical trial, SRA737 monotherapy dose escalation; format: in vivo, human; conditions: for AUC(0-t): AUC0-24
Experimental: A Phase 1 clinical trial was conducted in ‘all comers,’ i.e. no genetic selection was performed, to establish safety, tolerability and pharmacokinetics (“Dose Escalation Phase”). Cohorts consisting initially of a single subject received escalating doses of SRA737, starting in Cohort 1 with 20 mg/day administered orally on a continuous daily dosing schedule in 28 day cycles. the dose was escalated until the maximum tolerated dose (MTD) was identified.
In the Dose Escalation Phase, 18 subjects received SRA737 in 9 dose level cohorts, from 20 to 1300 mg QD; median treatment duration 62.5 days (range 1 to 226). […] Two of 3 subjects experienced DLTs at the 1300 mg once daily dose, each being an inability to receive 75% of the planned SRA737 dose due to GI intolerability, with the individual GI effects being low grade. […] A cohort receiving 500 mg twice daily was added to determine if a twice daily dosing schedule can improve GI tolerability, given the half-life of SRA737 is approximately 10 hours. One of 6 subjects experienced DLTs in the 500 mg twice daily cohort; this was an inability to receive 75% of the planned SRA737 dose due to grade 4 thrombocytopenia with grade 3 neutropenia and anemia.
Cmin was calculated at 1000 mg QD (411 ng/mL) and exceeded that determined in preclinical models to be effective. Doses≥300 mg QD also exceeded the preclinical models to be effective.

In the case of `N#Cc1cnc(Nc2cc(NCC3CNCCO3)c(C(F)(F)F)cn2)cn1` (stereo not shown) [SRA737, 5-[[4-[[morpholin-2-yl]methylamino]-5-(trifluoromethyl)-2-pyridyl]amino]pyrazine-2-carbonitrile], the antitumor activity (KPC-1 pancreatic cancer) is reported as “Significant, dose-dependent antitumor activity”, the single agent efficacy [1] is reported as “single agent efficacy” and the Papp at 10 μM [2] is reported as 20.7 ± 9.1 ×10⁻⁶ cm/s. For the same molecule, the efflux ratio at 10 μM ([2]; read-out: efflux ratio (A>B/B>A)) was 0.8, the parent remained (minipig hepatocytes) was 7% and the “findings exacerbated by SRA737 over the cisplatin/gemcitabine control group” value [3] was “reversible marrow toxicity, consequent splenomegaly, and the high-dose intestinal observations”. The “maximum tolerated dose (MTD)” value ([4]; BID) was 500 mg, the “maximum tolerated dose (MTD)” value ([4]; QD, continuous daily oral dosing) was 1000 mg and the “dose-limiting toxicities (DLTs)” value ([4]; human, in vivo) was “without any dose-limiting toxicities”. For the same molecule, the “doses that exceeded the level determined in preclinical models to be effective” value ([4]; human, in vivo) was ≥ 300 mg, the Cmax ([4]; human, in vivo, 20 mg) was 29.0 ng/mL and the Cmax ([4]; human, in vivo, 20 mg, Cmax) was 43 ng/mL. The half-life ([4]; human, in vivo, 20 mg, T1/2) was 17.6 h, the AUC0-24 ([4]; human, in vivo, 40 mg) was 1,006 ng · h/mL and the Cmax ([4]; human, in vivo, 40 mg) was 75.9 ng/mL. It also gave a T1/2 ([4]; human, in vivo, 40 mg) of 16.8 h, a Tmax ([4]; human, in vivo, 40 mg) of 2.0 h and an AUC(0-t) ([4]; human, in vivo, 40 mg) of 809 ng·h/mL. The Cmax ([4]; human, in vivo, 40 mg, Cmax) was 95 ng/mL, the half-life ([4]; human, in vivo, 40 mg, T1/2) was 9.85 h and the Tmax ([4]; human, in vivo, 40 mg, Tmax) was 1 h. For the same molecule, the AUC0-24 ([4]; human, in vivo, 80 mg) was 1,064 ng · h/mL, the Cmax ([4]; human, in vivo, 80 mg) was 81.4 ng/mL and the T1/2 ([4]; human, in vivo, 80 mg) was 15.6 h. The Tmax ([4]; human, in vivo, 80 mg) was 2.0 h, the AUC(0-t) ([4]; human, in vivo, 80 mg) was 691 ng·h/mL and the Cmax ([4]; human, in vivo, 80 mg, Cmax) was 68.9 ng/mL. For the same molecule, the half-life ([4]; human, in vivo, 80 mg, T1/2) was 9.27 h, the Tmax ([4]; human, in vivo, 80 mg, Tmax) was 4 h and the AUC0-24 ([4]; human, in vivo, 160 mg) was 2,515 ng · h/mL. For the same molecule, the Cmax ([4]; human, in vivo, 160 mg) was 217 ng/mL, the T1/2 ([4]; human, in vivo, 160 mg) was 19.8 h and the Tmax ([4]; human, in vivo, 160 mg) was 2.0 h. For the same molecule, the AUC(0-t) ([4]; human, in vivo, 160 mg) was 1620 ng·h/mL, the Cmax ([4]; human, in vivo, 160 mg, Cmax) was 178 ng/mL and the half-life ([4]; human, in vivo, 160 mg, T1/2) was 13.8 h. For the same molecule, the Tmax ([4]; human, in vivo, 160 mg, Tmax) was 4 h, the AUC0-24 ([4]; human, in vivo, 300 mg) was 2,362 ng · h/mL and the T1/2 ([4]; human, in vivo, 300 mg) was 15.4 h. It also gave a Tmax ([4]; human, in vivo, 300 mg) of 6.0 h, an AUC(0-t) ([4]; human, in vivo, 300 mg) of 3150 ng·h/mL and a half-life ([4]; human, in vivo, 300 mg, T1/2) of 8.59 h. For the same molecule, the Tmax ([4]; human, in vivo, 300 mg, Tmax) was 4 h, the AUC0-24 ([4]; human, in vivo, 600 mg) was 12,850 ng · h/mL and the Cmax ([4]; human, in vivo, 600 mg) was 1,381 ng/mL. The T1/2 ([4]; human, in vivo, 600 mg) was 10.4 h, the Tmax ([4]; human, in vivo, 600 mg) was 2.9 h and the AUC(0-t) ([4]; human, in vivo, 600 mg) was 8870 ng·h/mL. The Cmax ([4]; human, in vivo, 600 mg, Cmax) was 998 ng/mL, the half-life ([4]; human, in vivo, 600 mg, T1/2) was 12.9 h and the Tmax ([4]; human, in vivo, 600 mg, Tmax) was 1.8 h. For the same molecule, the AUC0-24 ([4]; human, in vivo, 800 mg) was 25,423 ng · h/mL, the Cmax ([4]; human, in vivo, 800 mg) was 2,573 ng/mL and the T1/2 ([4]; human, in vivo, 800 mg) was 10.0 h. The Tmax ([4]; human, in vivo, 800 mg) was 2.5 h, the AUC(0-t) ([4]; human, in vivo, 800 mg) was 18900 ng·h/mL and the Cmax ([4]; human, in vivo, 800 mg, Cmax) was 1980 ng/mL. It also gave a half-life ([4]; human, in vivo, 800 mg, T1/2) of 10.3 h, a Tmax ([4]; human, in vivo, 800 mg, Tmax) of 3.3 h and a T1/2 ([4]; human, in vivo, 1000 mg) of 9.38 h. It also gave a Tmax ([4]; human, in vivo, 1000 mg) of 3.1 h, an AUC(0-t) ([4]; human, in vivo, 1000 mg) of 26800 ng·h/mL and a Cmax ([4]; human, in vivo, 1000 mg, Cmax) of 2390 ng/mL. The half-life ([4]; human, in vivo, 1000 mg, T1/2) was 11 h, the Tmax ([4]; human, in vivo, 1000 mg, Tmax) was 3.3 h and the AUC(0-t) ([4]; human, in vivo, 1300 mg) was 29800 ng·h/mL. The Cmax ([4]; human, in vivo, 1300 mg, Cmax) was 3230 ng/mL, the half-life ([4]; human, in vivo, 1300 mg, T1/2) was 11.8 h and the Tmax ([4]; human, in vivo, 1300 mg, Tmax) was 2.7 h. The half-life ([4]; human, in vivo, half-life) was ~10 h.
